How the values were obtained:
[1] = molecular target: T1, CCR5 (Homo sapiens, UniProt P51681); assay: CCR5 in vitro test: intracellular calcium signal detected by FLIPR; type: cell-based; conditions: HEK293 cells expressing CCR5, agonist RANTES at EC80, calcium signal
T1 construct: expressed in transfected cells; host or cells: HEK293, clone C13, passage P4
Experimental: (§1) Experimental Example 1: CCR2/CCR5 In Vitro Test
(§2) The intracellular calcium signal was detected by FLIPR, and the IC50 value of the compound was used as an index to evaluate the inhibitory effect of the compound on CCR2 and CCR5 receptors.
(§3) 1. Cell line: The cells were inoculated and incubated in a 5% CO2 incubator at 37° C. overnight.
(§4) CCR2/CCR5 density: 1 M (20 k/well)
(§5) 2. Reagents: Fluo-4 Direct, (Invitrogen, Cat #F10471)
(§6) The compound was dissolved in DMSO to prepare a 10 mM solution, and the compound solution was placed in a nitrogen box.
(§7) Agonist reference compounds:
(§8) Preparation of probenecid in FLIPR assay buffer: 1 mL of FLIPR assay buffer was added to […] of probenecid to prepare a 250 mM solution, which is prepared fresh daily.
(§9) 2× (8 μM) Fluo-4 Direct™ Loading Buffer (per 10 mL) • Thaw a bottle of Fluo-4 Direct™ crystal (F10471). • Add 10 mL of FLIPR assay buffer to the vial. • Add 0.2 mL of probenecid to each 10 mL of Fluo-Direct. The final concentration of the assay was 2.5 mM. • Rotate it and place for >5 minutes (in absence of light). • Prepare fresh daily.
(§10) MCP-1 was diluted in FLIPR assay buffer 1:2 into 10 points, starting at 0.5 uM (final 100 nM). RANTES was diluted in FLIPR assay buffer 1:3 into 10 points, starting at 0.5 uM (final 100 nM). 20 uL of serially diluted compound buffer was added to each well of the DRC plate according to the compound plate map.
(§11) Standard compound was diluted in DMSO 1:3 into 11 points, starting at 1 mM. Test compound was diluted in DMSO 1:3 into 11 points, starting at 2 mM. 250 nL of compound solution was transferred into a cell plate using Echo (Greiner #781946).
(§12) (c) Take the cell plate out of the incubator, and gently dispense 20 uL of 2× Fluo-4 Direct wash-free loading buffer into a 384-well cell culture plate using a pipette. The final cell plate is 40 μL in volume.
(§13) (d) Incubate for 50 minutes at 37° C. under 5% CO2, and for 10 minutes at room temperature.
(§14) (e) Take the cell plate out of the incubator, and place it in FLIPR. Place the composite plate and the tip box in FLIPR.
(§15) (f) For DRC plate: • 1) Run the program on FLIPRTETRA. • 2) Read the fluorescent signal. • 3) Transfer 10 μL of compound from the DRC plate to the cell plate. • 4) Read the fluorescent signal. • 5) Calculate the “maximum−minimum” from Read 90 to the maximum allowed. Use FLIPR to calculate the EC80 value of each cell line. • 6) Prepare 5×EC80 concentration of the agonist reference compound.
(§16) (g) For the composite plate (1-add): • 1) Run the program on FLIPRTETRA. • 2) Transfer 10 μl, of 5×EC80 concentration of the agonist reference compound from the composite plate to the cell plate. • 3) Read the fluorescent signal. • 4) Calculate the “maximum−minimum” from Read 90 to the maximum allowed.
(§17) (h) Analyze the data using Prism, and calculate the IC50 value of the compound.

[2] = molecular target: T2, CCR2 (Homo sapiens, UniProt P41597); assay: CCR2 in vitro test: intracellular calcium signal detected by FLIPR; type: cell-based; conditions: HEK293 cells expressing CCR2, agonist MCP-1 at EC80, calcium signal
T2 construct: expressed in transfected cells; host or cells: HEK293, clone C7, passage P6
Experimental: as §1, §2, §3, §4, §5, §6, §7, §8, §9, §10, §11, §12, §13, §14, §15, §16, §17

[3] = Comparative pharmacokinetics study in rats; type: in vivo, SD male rats; conditions: rat; for clearance / half-life / bioavailability: male, Sprague-Dawley (SD), plasma; for clearance / half-life / Area Under a Curve (0-inf): intravenous injection 2 mg/kg; for bioavailability: oral 10 mg/kg vs intravenous 2 mg/kg; for Area Under a Curve (0-inf/0-last) / Peak time: oral 10 mg/kg; for Oral plasma system exposure (AUC0-inf) as multiple of the reference compound / Plasma clearance as percent of that of the reference compound: relative to Cenicriviroc
Experimental: Experimental Example 2: Comparative Pharmacokinetics Study in Rats
(§18) SD male rats were used as the test animals in this study. The drug concentrations in plasma of the rats by intravenous or oral administration of test compounds WX017, WX047, WX079, WX088 and reference compound at different time points were quantitatively determined by LC/MS/MS, which were used to evaluate the pharmacokinetic profile of the two test drugs in rats.
A clear solution of the test compound was injected into SD rats via the tail vein (overnight fasting, 7-10 weeks old), and the test compound was orally administered to the SD rats (overnight fasting, 7-10 weeks old). Approximately 200 μL of blood was collected from the jugular vein or tail vein of the animals 0.0833, 0.25, 0.5, 1, 2, 4, 6, 8 and 24 hours after administration, and was placed in an anticoagulant tube containing EDTA-K2. The plasma was collected by centrifugation at 3000 g for 15 minutes at 4° C. The plasma concentration was determined by LC-MS/MS. The pharmacokinetic parameters were calculated by the non-compartment model linear logarithmic trapezoidal method using WinNonlin™ Version 6.3 (Pharsight, Mountain View, Calif.) pharmacokinetic software.

[4] = molecular target: T3, CYP2C19 (Homo sapiens, UniProt P33261); assay: Inhibition of human liver microsomal CYP2C19 ((S)-mephenytoin probe); type: in vitro ADME; conditions: human liver microsomes
T3 construct: from tissue; host or cells: human liver microsomes
Experimental: (§19) Experimental Example 4 Inhibition Effect on the Activity of Human Liver Microsomal Cytochrome P450 Isoezymes (CYP1A2, CYP2C9, CYP2C19, CYP2D6 and CYP3A4)
(§20) A total of 5 specific probe substrates for CYP's five isozymes, Phenacetin (CYP1A2), Diclofenac (CYP2C9), […] (S)-Mephenytoin, CYP2C19), Dextromethorphan (CYP2D6) and Midazolam (CYP3A4) were incubated with human liver microsomes and test compounds, respectively, and reduced nicotinamide adenine dinucleotide phosphate (NADPH) was added to initiate the reaction. After the reaction, the sample was processed and liquid chromatography tandem mass spectrometry (LC-MS/MS) was used to quantitatively detect the […] metabolites produced by the specific substrate, Acetaminophen and 4′-hydroxydiclofenac, 4′-hydroxymephenytoin, Dextrorphan and 1′-hydroxymidazolam, in order to calculate the corresponding half maximal inhibitory concentration (IC50).

[5] = tested on: human liver microsomal cytochrome P450 isoenzymes; assay: Inhibition of human liver microsomal cytochrome P450 isoenzymes, overall conclusion; type: in vitro ADME; conditions: human liver microsomes
Experimental: as §19, §20

[6] = molecular target: T4, CYP2C9 (Homo sapiens, UniProt P11712); assay: Inhibition of human liver microsomal CYP2C9 (diclofenac probe); type: in vitro ADME; conditions: human liver microsomes
T4 construct: from tissue; host or cells: human liver microsomes
Experimental: as §19, §20

[7] = molecular target: T5, CYP2D6 (Homo sapiens, UniProt P10635); assay: Inhibition of human liver microsomal CYP2D6 (dextromethorphan probe); type: in vitro ADME; conditions: human liver microsomes
T5 construct: from tissue; host or cells: human liver microsomes
Experimental: as §19, §20

[8] = molecular target: T6, CYP1A2 (Homo sapiens, UniProt P05177); assay: Inhibition of human liver microsomal CYP1A2 (phenacetin probe); type: in vitro ADME; conditions: human liver microsomes
T6 construct: from tissue; host or cells: human liver microsomes
T6 sequence (P05177 1-516): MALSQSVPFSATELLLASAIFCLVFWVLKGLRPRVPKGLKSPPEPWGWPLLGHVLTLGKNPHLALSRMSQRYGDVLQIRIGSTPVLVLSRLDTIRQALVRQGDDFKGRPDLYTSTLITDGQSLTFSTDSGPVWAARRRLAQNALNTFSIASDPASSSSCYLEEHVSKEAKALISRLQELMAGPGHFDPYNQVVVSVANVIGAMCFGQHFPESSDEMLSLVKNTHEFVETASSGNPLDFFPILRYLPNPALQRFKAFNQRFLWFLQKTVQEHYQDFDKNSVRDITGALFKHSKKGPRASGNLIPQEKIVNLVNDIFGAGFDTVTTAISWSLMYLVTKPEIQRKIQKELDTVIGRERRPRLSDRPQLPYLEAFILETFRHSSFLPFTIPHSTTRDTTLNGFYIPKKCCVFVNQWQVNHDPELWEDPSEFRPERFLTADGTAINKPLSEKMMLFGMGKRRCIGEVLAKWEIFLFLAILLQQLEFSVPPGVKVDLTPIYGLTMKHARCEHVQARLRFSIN
Experimental: as §19, §20

[9] = molecular target: T7, CYP3A4 (Homo sapiens, UniProt P08684); assay: Inhibition of human liver microsomal CYP3A4 (midazolam probe); type: in vitro ADME; conditions: human liver microsomes; for IC50: probe midazolam
T7 construct: from tissue; host or cells: human liver microsomes
Experimental: as §19, §20

[10] = Comparative pharmacokinetics study in cynomolgus monkeys; type: in vivo; conditions: cynomolgus monkey
From the text: Experimental Example 3: Comparative Pharmacokinetics Study in Cynomolgus Monkeys
as §18, with “Male cynomolgus monkeys” for “SD male rats”, “cynomolgus monkeys” for “rats”, “compound WX047” for “compounds WX017, WX047, WX079, WX088”, “cynomolgus monkeys.” for “rats.”
A clear solution of the test compound was injected into cynomolgus monkeys via t the cephalic or saphenous vein (overnight fasting, 2.5-7 kg), and the test compound was intragastrically administered to the cynomolgus monkeys (overnight fasting, 7-10 weeks old). Approximately 400 μL of blood was collected from the peripheral vein of the animals 0.0833, 0.25, 0.5, 1, 2, 4, 6, 8, 12 and 24 hours after administration, and transferred into an commercial centrifuge tube containing EDTA-K2*2H2O anticoagulation. The plasma was collected by centrifugation at 3000 g for 10 minutes at 4° C. The plasma concentration was determined by LC-MS/MS. The pharmacokinetic parameters were calculated by the non-compartment model linear logarithmic trapezoidal method using WinNonlin™ Version 6.3 (Pharsight, Mountain View, Calif.) pharmacokinetic software.

[11] = male, plasma, intravenous injection 1 mg/kg

T1 sequence (P51681 whole entry, species assumed): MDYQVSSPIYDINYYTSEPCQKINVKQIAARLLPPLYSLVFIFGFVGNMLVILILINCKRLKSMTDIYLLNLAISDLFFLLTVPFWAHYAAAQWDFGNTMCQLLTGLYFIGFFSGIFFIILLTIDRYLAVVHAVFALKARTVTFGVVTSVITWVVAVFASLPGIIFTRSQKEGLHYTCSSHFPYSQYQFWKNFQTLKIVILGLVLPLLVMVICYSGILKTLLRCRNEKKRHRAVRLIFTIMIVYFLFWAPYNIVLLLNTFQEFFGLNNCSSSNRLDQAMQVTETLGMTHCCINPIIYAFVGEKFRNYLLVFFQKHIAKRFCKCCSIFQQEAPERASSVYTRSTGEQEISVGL
T7 sequence (P08684 whole entry): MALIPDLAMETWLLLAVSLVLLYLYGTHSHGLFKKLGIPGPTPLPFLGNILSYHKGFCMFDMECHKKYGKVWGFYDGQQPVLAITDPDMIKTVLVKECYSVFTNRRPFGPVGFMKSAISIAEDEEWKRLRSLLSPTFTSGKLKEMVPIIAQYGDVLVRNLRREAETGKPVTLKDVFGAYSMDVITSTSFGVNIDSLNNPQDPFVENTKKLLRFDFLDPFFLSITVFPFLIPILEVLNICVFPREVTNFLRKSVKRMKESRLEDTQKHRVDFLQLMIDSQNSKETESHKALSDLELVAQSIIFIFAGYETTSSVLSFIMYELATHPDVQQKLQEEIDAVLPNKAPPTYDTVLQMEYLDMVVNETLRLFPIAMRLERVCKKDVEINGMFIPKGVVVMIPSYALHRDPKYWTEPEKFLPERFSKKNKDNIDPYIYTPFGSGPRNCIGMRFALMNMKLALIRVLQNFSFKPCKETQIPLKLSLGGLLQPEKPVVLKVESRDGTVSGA
T2 sequence (P41597 whole entry, species assumed): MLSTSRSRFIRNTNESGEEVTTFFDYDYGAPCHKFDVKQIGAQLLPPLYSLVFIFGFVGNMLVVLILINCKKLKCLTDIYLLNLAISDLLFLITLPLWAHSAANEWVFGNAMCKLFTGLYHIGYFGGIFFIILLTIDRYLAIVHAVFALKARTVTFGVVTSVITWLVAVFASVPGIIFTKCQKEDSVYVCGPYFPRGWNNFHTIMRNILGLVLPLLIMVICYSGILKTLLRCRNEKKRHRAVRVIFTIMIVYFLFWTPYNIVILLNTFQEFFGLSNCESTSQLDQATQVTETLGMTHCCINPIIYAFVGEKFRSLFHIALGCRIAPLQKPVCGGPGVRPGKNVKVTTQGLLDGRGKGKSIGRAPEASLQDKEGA
T3 sequence (P33261 whole entry): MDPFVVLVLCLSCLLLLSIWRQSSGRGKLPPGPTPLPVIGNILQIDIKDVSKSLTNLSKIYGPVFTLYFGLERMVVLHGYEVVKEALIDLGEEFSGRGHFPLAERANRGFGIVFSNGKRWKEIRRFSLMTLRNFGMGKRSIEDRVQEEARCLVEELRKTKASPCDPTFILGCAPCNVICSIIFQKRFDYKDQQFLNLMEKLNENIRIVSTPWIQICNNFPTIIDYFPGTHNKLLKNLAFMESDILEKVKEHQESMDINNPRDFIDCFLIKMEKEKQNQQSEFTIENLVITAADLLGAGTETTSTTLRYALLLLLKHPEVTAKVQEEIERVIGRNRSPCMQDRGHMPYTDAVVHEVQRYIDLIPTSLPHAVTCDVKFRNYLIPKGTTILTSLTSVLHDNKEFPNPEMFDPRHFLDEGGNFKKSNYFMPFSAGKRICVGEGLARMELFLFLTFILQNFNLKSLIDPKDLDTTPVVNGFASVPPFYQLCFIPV
T4 sequence (P11712 whole entry): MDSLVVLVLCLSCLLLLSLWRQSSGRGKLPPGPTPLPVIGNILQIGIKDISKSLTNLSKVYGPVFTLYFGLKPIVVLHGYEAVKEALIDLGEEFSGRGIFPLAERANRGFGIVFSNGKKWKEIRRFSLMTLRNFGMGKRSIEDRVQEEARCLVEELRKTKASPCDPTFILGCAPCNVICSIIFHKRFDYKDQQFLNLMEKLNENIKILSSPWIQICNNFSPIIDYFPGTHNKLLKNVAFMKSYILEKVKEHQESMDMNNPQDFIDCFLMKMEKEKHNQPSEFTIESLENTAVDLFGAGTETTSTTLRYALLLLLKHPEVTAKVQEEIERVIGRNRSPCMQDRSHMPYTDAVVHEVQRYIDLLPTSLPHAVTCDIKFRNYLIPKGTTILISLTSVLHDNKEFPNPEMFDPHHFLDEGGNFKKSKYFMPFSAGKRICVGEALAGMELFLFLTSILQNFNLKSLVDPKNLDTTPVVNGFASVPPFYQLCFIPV
T5 sequence (P10635 whole entry): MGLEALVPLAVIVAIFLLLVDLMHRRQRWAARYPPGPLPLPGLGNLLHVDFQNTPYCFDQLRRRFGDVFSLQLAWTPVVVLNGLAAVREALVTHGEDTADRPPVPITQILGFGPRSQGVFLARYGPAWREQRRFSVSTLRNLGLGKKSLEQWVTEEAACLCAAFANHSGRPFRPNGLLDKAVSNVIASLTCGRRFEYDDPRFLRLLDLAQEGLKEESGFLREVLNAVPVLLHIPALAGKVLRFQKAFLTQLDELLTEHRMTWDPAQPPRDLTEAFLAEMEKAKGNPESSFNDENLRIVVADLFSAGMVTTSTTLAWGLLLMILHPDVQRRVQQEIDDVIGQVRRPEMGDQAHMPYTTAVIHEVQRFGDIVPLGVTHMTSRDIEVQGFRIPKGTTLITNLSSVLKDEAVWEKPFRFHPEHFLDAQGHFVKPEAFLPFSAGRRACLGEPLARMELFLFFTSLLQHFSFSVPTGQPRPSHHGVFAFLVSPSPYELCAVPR

| IC50 [1] | IC50 [2] | clearance [3] | half-life [3] | bioavailability [3] | Area Under a Curve (0-inf) [3] | Area Under a Curve (0-inf/0-last) [3] | Peak time [3] | Oral plasma system exposure (AUC0-inf) as multiple of the reference compound [3] | Plasma clearance as percent of that of the reference compound [3] | IC50 [4] | IC50 [6] | IC50 [7] | IC50 [8] | IC50 [9] | SMILES | also measured |
| --- | --- | --- | --- | --- | --- | --- | --- | --- | --- | --- | --- | --- | --- | --- | --- | --- |
| 7.9 nM | 13 nM | 0.4 mL/min/kg | 3.69 h | 48.9% | 135.732 µM·h | 331.778 µM·h | 1.5 h | 10.4 times | 25% | – | – | – | – | – | CCCCOCCOc1ccc(-c2ccc(OC)c(/C=C/C(=O)Nc3ccc([S@@+]([O-])Cc4cncn4CCC)cc3)c2)cc1 [WX017] | – |
| 5.8 nM | 5.6 nM | 0.224 mL/min/kg | 9.47 h | 32.6% | 255.072 µM·h | 404.142 µM·h | 3.0 h | 12.6 times | 14% | > 50000 nM | > 50000 nM | > 50000 nM | > 50000 nM | 28300 nM | CCCCOCCOc1ccc(-c2ccc(OC)c(/C=C/C(=O)Nc3ccc([S@+]([O-])Cc4c(C)ncn4CC)cc3)c2)cc1 [WX079] | Risk of inhibiting isoenzymes of human liver microsomal cytochrome P450 (conclusion in words) [5]: no risk on inhibiting five isoenzymes |
| 4.3 nM | 3.5 nM | 0.328 mL/min/kg | 6.63 h | 15.7% | 150.423 µM·h | 122.101 µM·h | 3.0 h | 3.8 times | 21% | – | – | – | – | – | CCCCOCCOc1ccc(-c2cc(F)c(OC)c(/C=C/C(=O)Nc3ccc([S@+]([O-])Cc4c(C)ncn4CC)cc3)c2)cc1 [WX088] | – |
| – | – | 1.57 mL/min/kg | 5.48 h | 20.4% | 31.344 µM·h | 31.956 µM·h | 4.0 h | – | – | > 50000 nM | > 50000 nM | > 50000 nM | > 50000 nM | 5600 nM | CCCCOCCOc1ccc(-c2ccc3c(c2)/C=C(/C(=O)Nc2ccc([S@@+]([O-])Cc4cncn4CCC)cc2)CCCN3CC(C)C)cc1 [(Cenicriviroc), Cenicriviroc, reference compound] | Inhibitory effect on CYP3A4 (conclusion in words) [9]: weak inhibitory effect; Area Under a Curve (0-inf) ([10]; intravenous injection 1 mg/kg): 2.766 µM·h; Area Under a Curve (0-inf/0-last) ([10]; oral 3 mg/kg): 0.424 µM·h; Peak time ([10]; oral 3 mg/kg): 2.0 h; clearance [10, 11]: 8.74 mL/min/kg; half-life [10, 11]: 5.37 h; bioavailability ([10]; male, plasma, oral 3 mg/kg vs intravenous 1 mg/kg): 5.11% |

Reference: US11155523B2, “Biphenyl compound as CCR2/CCR5 receptor antagonist” (Medshine Discovery Inc., priority 2016, dated 2021)
